Results filed as inconclusive are left out. The source made the active and inactive calls.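 How the source made its calls: active means fitted curve crosses a set inhibition level at a dose up to twice the top tested dose; inconclusive means flat curve with moderate inhibition, or an unreliable curve fit; inactive means the rest, including signal rising instead of falling.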

One assay is described as follows: inhibitors of TNFa-stimulated NF-kB luciferase reporter, dose response, selectivity assay for EBV LMP1 NF-kB inhibitor project, HEK293 LMP1 reporter cells, dry powder, set 2 (AID 624369). The conditions noted are these: HEK293 LMP1 TES2 NF-kB luciferase reporter, 16 h; at 16 µM (top of the series).
As for `C[C@@H]1CN([C@H](C)CO)C(=O)Cc2cc(NC(=O)Cc3ccccc3)ccc2O[C@@H]1CN(C)Cc1ccc(C(F)(F)F)cc1`, the activity change, negative = inhibition was 23.7% (inactive).

The same assay, now with this note: HEK293 LMP1 TES2 NF-kB luciferase reporter, 16 h; at 30 µM (top of the series).
For `Cc1noc(C)c1S(=O)(=O)Nc1ccc2c(c1)C(=O)N([C@@H](C)CO)C[C@H](C)[C@H](CN(C)Cc1ccc(C(F)(F)F)cc1)OCCCC[C@@H](C)O2`, the activity change, negative = inhibition is 83.8% (inactive).

With `C[C@H](NC(=O)C[C@@H]1C=C[C@H](NC(=O)Cc2ccccn2)[C@H](CO)O1)c1ccccc1`, the activity change, negative = inhibition was -0.606% (inactive).

Staying with this assay, now noted: HEK293 LMP1 TES2 NF-kB luciferase reporter, 16 h; at 35 µM (top of the series).
For the molecule `O=C(Nc1ccc(C(F)(F)F)cc1)Nc1ccc2c(c1)[C@H]1C[C@@H](CC(=O)N3CCc4ccccc4C3)O[C@@H](CO)[C@H]1O2`, the activity change, negative = inhibition is 0.365% (inactive).

On to `CS(=O)(=O)Nc1ccc2c(c1)[C@@H]1C[C@H](CC(=O)NCC3CC3)O[C@H](CO)[C@@H]1O2`, for which the activity change, negative = inhibition was 6.19% (inactive).

As for `C[C@H](NC(=O)C[C@@H]1C=C[C@@H](NC(=O)Cc2ccccn2)[C@@H](CO)O1)c1ccccc1`, the activity change, negative = inhibition was -1.02% (inactive).

Turning to `C[C@@H]1CN([C@@H](C)CO)C(=O)c2c(c3ccccc3n2C)-c2ccccc2CO[C@@H]1CN(C)C(=O)Nc1ccc(F)cc1`, the activity change, negative = inhibition is 3.56% (inactive).

On to `C[C@@H](NC(=O)C[C@@H]1C=C[C@H](NC(=O)Cc2ccccn2)[C@H](CO)O1)c1ccccc1`, for which the activity change, negative = inhibition is -2.15% (inactive).

Regarding `C[C@H](NC(=O)C[C@@H]1C=C[C@@H](NC(=O)Cc2ccccn2)[C@H](CO)O1)c1ccccc1`, the activity change, negative = inhibition was -3.22% (inactive).

Regarding `C[C@H](CO)N1C[C@H](C)[C@H](CN(C)C(=O)NC2CCCCC2)Oc2cc(/C=C/c3ccccc3)ccc2S1(=O)=O`, the activity change, negative = inhibition was -10.3% (inactive).

Take `C[C@H]1CN([C@@H](C)CO)C(=O)c2c(c3ccccc3n2C)-c2ccccc2CO[C@@H]1CN(C)C(=O)Nc1ccc(F)cc1`: the activity change, negative = inhibition was 1.28% (inactive).

`C[C@H](CO)N1C[C@H](C)[C@@H](CN(C)S(=O)(=O)c2cccc(F)c2)Oc2ncc(C#CC3CCCCC3)cc2C1=O`: the activity change, negative = inhibition was 1.93% (inactive).

As for `CO[C@@H]1CN(C)C(=O)c2ccc(NC(C)=O)cc2OC[C@@H](C)N(Cc2ccccc2F)C[C@H]1C`, the activity change, negative = inhibition is 3.06% (inactive).

`C[C@H](NC(=O)C[C@H]1C[C@@H]2c3cc(NC(=O)c4cccnc4)ccc3O[C@@H]2[C@@H](CO)O1)c1ccccc1`: the activity change, negative = inhibition was -8.72% (inactive).

Take `CS(=O)(=O)Nc1ccc2c(c1)[C@H]1C[C@@H](CC(=O)NCC3CC3)O[C@@H](CO)[C@H]1O2`: the activity change, negative = inhibition is -2.86% (inactive).

`O=C(C[C@@H]1C[C@@H]2c3cc(NS(=O)(=O)c4ccc(F)cc4)ccc3O[C@@H]2[C@H](CO)O1)NC1CCCCC1`: the activity change, negative = inhibition was 12.6% (inactive).

With `C[C@@H](NC(=O)C[C@H]1C=C[C@H](NC(=O)Cc2ccccn2)[C@@H](CO)O1)c1ccccc1`, the activity change, negative = inhibition is 0.235% (inactive).

On to `C[C@@H](NC(=O)C[C@@H]1C=C[C@@H](NC(=O)Cc2ccccn2)[C@H](CO)O1)c1ccccc1`, for which the activity change, negative = inhibition is -0.205% (inactive).

For the molecule `COc1cccc(S(=O)(=O)N(C)C[C@@H]2Oc3cc(C4=CCCCC4)ccc3S(=O)(=O)N([C@@H](C)CO)C[C@H]2C)c1`, the activity change, negative = inhibition is -6.23% (inactive).

`C[C@@H](NC(=O)C[C@@H]1C=C[C@@H](NC(=O)Cc2ccccn2)[C@@H](CO)O1)c1ccccc1`: the activity change, negative = inhibition is -4.92% (inactive).

For `C[C@@H]1CN([C@@H](C)CO)C(=O)Cc2cc(NC(=O)Cc3ccccc3)ccc2O[C@H]1CN(C)Cc1ccc(C(F)(F)F)cc1`, the activity change, negative = inhibition is 29.3% (inactive).

`COc1ccc(NC(=O)N(C)C[C@@H]2Oc3cc(C#CCC(C)C)ccc3S(=O)(=O)N([C@@H](C)CO)C[C@@H]2C)cc1`: the activity change, negative = inhibition is 14.6% (inactive).

In the case of `C[C@@H]1CN([C@H](C)CO)C(=O)Cc2cc(NC(=O)Cc3ccccc3)ccc2O[C@H]1CN(C)Cc1ccc(C(F)(F)F)cc1`, the activity change, negative = inhibition is 2.66% (inactive).

Turning to `CN(C)c1ccc2c(c1)[C@@H]1C[C@@H](CC(=O)NCc3ccc(Oc4ccccc4)cc3)O[C@@H](CO)[C@@H]1O2`, the activity change, negative = inhibition was -31.8% (inactive).

Take `C[C@@H]1CN([C@@H](C)CO)C(=O)Cc2cc(NC(=O)Cc3ccccc3)ccc2O[C@@H]1CN(C)Cc1ccc(C(F)(F)F)cc1`: the activity change, negative = inhibition was 26.6% (inactive).

Regarding `O=C(Cc1ccccn1)NCC[C@@H]1CC[C@@H](NC(=O)Nc2ccc(Cl)cc2)[C@@H](CO)O1`, the activity change, negative = inhibition was 2.08% (inactive).

For `C[C@H](NC(=O)C[C@@H]1C=C[C@H](NC(=O)Cc2ccccn2)[C@@H](CO)O1)c1ccccc1`, the activity change, negative = inhibition is -2.15% (inactive).

`C[C@H](NC(=O)C[C@H]1C=C[C@@H](NC(=O)Cc2ccccn2)[C@@H](CO)O1)c1ccccc1`: the activity change, negative = inhibition was -2.31% (inactive).

For `C[C@H](CO)N1C[C@H](C)[C@H](CN(C)Cc2ccc(Oc3ccccc3)cc2)Oc2ccc(NC(=O)CCCN(C)C)cc2C1=O`, the activity change, negative = inhibition was 20.6% (inactive).

Consider `C[C@H]1CN([C@@H](C)CO)C(=O)Cc2cc(NC(=O)Cc3ccccc3)ccc2O[C@@H]1CN(C)Cc1ccc(C(F)(F)F)cc1`, for which the activity change, negative = inhibition was 13.6% (inactive).

As for `Cc1noc(C)c1S(=O)(=O)Nc1ccc2c(c1)C(=O)N([C@@H](C)CO)C[C@H](C)[C@@H](CN(C)Cc1ccc(C(F)(F)F)cc1)OCCCC[C@@H](C)O2`, the activity change, negative = inhibition is -1.88% (inactive).

As to `COc1ccccc1C(=O)Nc1ccc2c(c1)C(=O)N(C)[C@@H]1CC[C@H](CC(=O)NCCc3ccncc3)O[C@H]1CO2`, the activity change, negative = inhibition is -5.47% (inactive).

Consider `O=C(Cc1ccccn1)NCC[C@@H]1CC[C@H](NC(=O)Nc2ccc(Cl)cc2)[C@H](CO)O1`, for which the activity change, negative = inhibition was 1.35% (inactive).

`C[C@@H]1CN([C@H](C)CO)C(=O)c2c(c3ccccc3n2C)-c2ccccc2CO[C@H]1CN(C)C(=O)Nc1ccc(F)cc1`: the activity change, negative = inhibition was 30% (inactive).

Consider `O=C(Cc1ccccn1)NCC[C@H]1CC[C@@H](NC(=O)Nc2ccc(Cl)cc2)[C@H](CO)O1`, for which the activity change, negative = inhibition is -8.81% (inactive).

Turning to `C[C@H]1CN([C@@H](C)CO)C(=O)Cc2cc(NC(=O)Cc3ccccc3)ccc2O[C@H]1CN(C)Cc1ccc(C(F)(F)F)cc1`, the activity change, negative = inhibition was 63.2% (inactive).

For the molecule `O=C(Cc1ccccn1)NCC[C@H]1CC[C@H](NC(=O)Nc2ccc(Cl)cc2)[C@H](CO)O1`, the activity change, negative = inhibition is -3.5% (inactive).

On to `O=C(Cc1ccccn1)NCC[C@@H]1CC[C@@H](NC(=O)Nc2ccc(Cl)cc2)[C@H](CO)O1`, for which the activity change, negative = inhibition is 1.95% (inactive).

Take `O=C(C[C@@H]1C[C@@H]2c3cc(NC(=O)c4cccnc4)ccc3O[C@@H]2[C@H](CO)O1)NCC(F)(F)F`: the activity change, negative = inhibition is -2.45% (inactive).

Regarding `C[C@@H](NC(=O)C[C@@H]1C=C[C@H](NC(=O)Cc2ccccn2)[C@@H](CO)O1)c1ccccc1`, the activity change, negative = inhibition is 4.33% (inactive).

`COc1cccc(S(=O)(=O)N(C)C[C@H]2Oc3cc(C4=CCCCC4)ccc3S(=O)(=O)N([C@H](C)CO)C[C@H]2C)c1`: the activity change, negative = inhibition is 26.9% (inactive).

These data come from PubChem BioAssay AID624369 (Broad Institute, 2012).
